Laboratory results: patent US6613340B2, “Substantive hydrophobic cationic UV-absorbing compounds” (Galaxy Surfactants Ltd., priority 2001, dated 2003)

Assay: UV absorption (molar extinction coefficient)
Format: physicochemical
Details: in methanol
Experimental: Ethyl p-methoxy cinnamate (206.0 g, 1.0 mole), N,N-dimethylpropyldiamine (306.0 g, 3.0 mole) and sodium methoxide (2.0 g) were charged in a pressure reactor. The air inside the reactor was flushed out by purging of nitrogen. The reaction mixture was then stirred at 180° C. (this generated pressure of 18 kg/cm^2) for 36 hours. The progress of reaction was monitored by disappearance of ethyl p-methoxy cinnamate on chromatography (TLC and HPLC). The TLC was performed on aluminium coated silica gel plates (Merck-60-F-254) and viewed with a UV lamp at 254 nm. HPLC was performed using reversed phase technique on a C-18 bonded (octadecyl silane) column and 60% aqueous methanol as mobile phase (1.0 ml/min) and detection at 280 nm. The excess amine was removed under vacuum.

molar extinction coefficient, ε (at 290 nm, in M-1cm-1 (unit assumed)) | molar extinction coefficient, ε (at λmax 310 nm) | Structure (SMILES)
24,224 | – | COc1ccc(C=CC(=O)NCCCN(C)C)cc1 [p-methoxy cinnamidopropyldimethylamine]
– | 25,000 | CCCCCCCCCCCC[N+](C)(C)CCCNC(=O)C=Cc1ccc(OC)cc1.Cc1ccc(S(=O)(=O)[O-])cc1 [p-methoxy cinnamidopropyldimethyllauryl ammonium tosylate]
